Data set [1] in a line: Compound was evaluated for oral bioavailability in dogs; 37-38 %. The class given is ADME, organism-based, Canis lupus familiaris. The settings on record: dog, in vivo.
Data set [2] can be described thus: Solubility in water. The class given is physicochemical. The conditions noted are these: read-out: S.

In brackets after ≈: the same amount, converted by molar mass.

Broadly, the bioavailability is the share of a dose that reaches the circulation, judged against a reference dose that is usually intravenous. Low readings indicate poor availability, high ones good availability. Regarding `O=C1N(Cc2ccc(CO)cc2)[C@H](Cc2ccccc2)[C@H](O)[C@@H](O)[C@@H](Cc2ccccc2)N1Cc1ccc(CO)cc1` [DMP-323], in data set [1], the bioavailability is 38%. For the same molecule, the solubility in data set [2] came out at 10 µg/mL (≈ 17.6 µM).

(Values after ChEMBL document CHEMBL1129172, “Synthesis of water soluble prodrug of DMP323” (Bioorg Med Chem Lett, 1996).)
